For test [1], the system named is normal human epidermal melanocytes (NHEM). The test is described as follows: Melanin synthesis under stimulated condition (L-tyrosine-induced, OD at 405 nm). The following applies: tested at 5 µg/ml, L-tyrosine 1 mM, 10 days. It counts as cell-based. The protocol: More specifically, the effect of the compound was evaluated on the following parameters: • 1. […] Melanin synthesis in NHEM stimulated by […]. • 3. […] For the tyrosinase activity assay the following concentrations were tested: 0.33, 1, 3, 9, 27 and 81 mg/ml (the spray-dried cloudberry powder was dissolved in assay buffer). For the melanin synthesis and melanocyte dendricity assay the following concentrations were tested: 0.33, 1 and 3 mg/ml (the spray-dried cloudberry powder was dissolved in culture medium). Melanocytes were seeded in 24-well plates and cultured in their culture medium for 24 hours. The medium was then replaced by culture medium containing or not (stimulated control) the inducer (L-Tyrosine) and the test compound of the reference (lipoic acid at 5 µg/ml). […] In parallel, a non-stimulated control was performed. Each experimental condition was performed in n=3. At the end of incubation, melanin was extracted by cell lysis using a 0.5 N NaOH solution. The optical density (OD) of each experimental point was measured at 405 nm and melanin quantity was calculated using melanin standards. Results were expressed in µg/ml of melanin and in percentage of inhibition compared to control.

For test [2], the system named is co-culture of NHEM and normal human epidermal keratinocytes (NHEK). Briefly: Melanocyte dendricity under stimulated condition (IBMX, immunofluorescent labeling and image analysis). Format: cell-based. The following applies: tested at 0.025 µg/ml, IBMX 200 µM, 72 hours, read-out: % of inhibition of the formation of dendrites by the melanocytes. The protocol:
Two further assays were carried out to evaluate the whitening effect of the powder, i.e. melanin synthesis in NHEM stimulated by […] and melanocyte dendricity in a co-culture of NHEM and normal human epidermal keratinocytes (NHEK) in presence of IBMX (a melanocyte dendricity stimulating agent) using in situ immunofluorescent labeling and image analysis. As reference substances in these tests lipoic acid and vincristine, respectively, were used.
More specifically, the effect of the compound was evaluated on the following parameters: • 1. Activity of tyrosinase enzyme extracted from NHEM (acellular assay). • 2. Melanin synthesis in NHEM stimulated by […]. • 3. Melanocyte dendricity in a co-culture of NHEM and normal human epidermal keratinocytes (NHEK) in presence of IBMX (a melanocyte dendricity stimulating agent) using in situ immunofluorescent labeling and image analysis.
For the tyrosinase activity assay the following concentrations were tested: 0.33, 1, 3, 9, 27 and 81 mg/ml (the spray-dried cloudberry powder was dissolved in assay buffer). […]
Images were acquired of the wells (10 photos per well). The labeling was quantified by the measurement of the dendrite fluorescence area normalized to the total number of melanocytes.

Molecules are shown by their SMILES.

On to `O=C(O)CCCC[C@@H]1CCSS1` (racemic) [lipoic acid], for which the “% of inhibition of L-tyrosine-induced melanin synthesis” value in test [1] was 108%.

By inhibition is commonly meant the change of the read-out against control, counted positive when it falls. As for `CC[C@]1(O)C[C@H]2CN(CCc3c([nH]c4ccccc34)[C@@](C(=O)OC)(c3cc4c(cc3OC)N(C=O)[C@H]3[C@@](O)(C(=O)OC)[C@H](OC(C)=O)[C@]5(CC)C=CCN6CC[C@]43[C@@H]65)C2)C1` [vincristine], the inhibition at 0.025 µg/mL in test [2] is 175%.

Values taken from patent EP3365068B1, “COSMETIC COMPOSITIONS FOR SKIN WHITENING” (Lumene Oy, priority 2015, dated 2017).
